Results: PMC4763182 (Scientific Reports, 2016)

How the values were obtained:
[1] = system: Stx2 cytotoxicity toward HeLa cells
[2] = system: recombinant histidine-tagged Stx2B subunit (2BH); assay type: binding, Escherichia coli
[3] = system: binding of 125I-Stx2 to HeLa cells; assay type: cell-based

HNPMSFPTPRLY [HN-11]
inhibitory effect on Stx2 cytotoxicity [1]: Almost no inhibitory effect
concentration dependence of binding to 2BH [2]: did not significantly change
inhibitory effect on the uptake of Stx2 [3]: almost no inhibitory effect
